Laboratory results from patent publication US4732892A, “L-α-amino acids as transdermal penetration enhancers” (priority 1985, dated 1988).
Read-outs that look alike come from different tables or passages of the source.

Assays:
[1] = in vitro penetration of levonorgestrel across hairless mouse skin, modified Franz diffusion cell
Excerpt: In the examples, the steady state rate of penetration, or flux, is indicated by the symbol: Jss. The cumulative amount of drug penetrated is indicated by the Symbol: Q. The lag period to reach steady state is indicated by the symbol: tL. The standard deviation for statistical purposes is abbreviated: S.D. The standard error of the mean for statistical purposes is abbreviated S.E.M. Abbreviation "g" denotes grams, "mg" denotes milligram, "mcg" denotes micrograms and "ng" denotes nanograms.
Initially, twelve amino acids were selected for evaluation of their effect on the rate of penetration of levonorgestrel through hairless mouse skin. Differing amino acids were selected according to the structure of their side chain so that at least one amino acid from each of the seven different chemical groups was studied. […] These were incorporated into transdermal drug formulations and the corresponding rates of penetration were determined. […] A total of 36 out of a possible 48 formulations were evaluated. The effect of amino acid, pH and ionic species on the rate of penetration was then analyzed.
The amino acids were dissolved in distilled water and the pH was adjusted by addition of either 0.1 or 1.ON HCl or 1.0N NaOH. Ethanol was then added to give a final ethanol concentration of 40% w/w. The pH was monitored and recorded. […] 1%(w/w) levonorgestrel was suspended in this solvent system. Suspensions were applied to hairless mouse skin as described above.
The penetration of drug across hairless mouse skin was studied in vitro using a modified Franz diffusion cell apparatus as described by Y. W. Chien, P. R. Keshary, Y. C. Huany and P. P. Sarpotdar in "Comparative Controlled Skin Permeation of Nitroglycerin from Marketed Transdermal Delivery Systems," J. Pharmaceutical Sciences, Vol. 72, No. 8 August 1983, pp. 968-970. […] Samples were withdrawn at predetermined times up to a total of 10 hours.
Subsequently, rates of penetration were also determined (in hairless mouse skin a described above) for Norleucine, Norvaline and α-Amino-n-Butyric Acid.

[2] = pH values at which amino acids were tested; cited from earlier work
[3] = Table II, average of all data at all pH values, amino acid 0.2 M

Compound: C[C@H](N)C(=O)O [Alanine, L-Alanine]
- Jss, steady state rate of penetration of levonorgestrel [1]: 0.8553 mcg/cm^2 /hr
- Jss, steady state rate of penetration of levonorgestrel ([1]; pH 4.8): 0.8553 mcg/cm^2 /hr

Compound: N=C(N)NCCC[C@H](N)C(=O)O [Arginine, L-(+)-Arginine]
- pHISO (isoelectric pH) [2]: 10.8
- Jss, steady state rate of penetration of levonorgestrel [1, 3]: 0.8864 mcg/cm^2 /hr
- Jss, steady state rate of penetration of levonorgestrel ([1]; Table VI, at pK2', pH 10.8): 1.012 mcg/cm^2 hr
- Jss, steady state rate of penetration of levonorgestrel ([1]; pH 2.9): 0.688 mcg/cm^2 /hr
- Jss, steady state rate of penetration of levonorgestrel ([1]; pH 4.2): 0.9590 mcg/cm^2 /hr
- Jss, steady state rate of penetration of levonorgestrel ([1]; pH 10.8): 1.012 mcg/cm^2 /hr

Compound: N[C@@H](CC(=O)O)C(=O)O [Aspartic Acid, L-(+)-Aspartic Acid]
- Jss, steady state rate of penetration of levonorgestrel [1, 3]: 1.1538 mcg/cm^2 /hr
- Jss, steady state rate of penetration of levonorgestrel ([1]; pH 4.4): 1.1538 mcg/cm^2 /hr

Compound: N[C@@H](CS)C(=O)O [Cysteine, L-(+)-Cysteine]
- Jss, steady state rate of penetration of levonorgestrel [1]: 1.6160 mcg/cm^2 /hr
- effect on penetration at specific pHs, in words ([1]; Tables III-VI): greatest affect on penetration
- overall rate of penetration of levonorgestrel, ranking in words ([1]; average of all pH values, P=0.05): provided the highest rates
- Jss, steady state rate of penetration of levonorgestrel ([1]; pH 2.3): 2.154 mcg/cm^2 /hr
- rate of penetration of levonorgestrel, ranking in words ([1]; pH 2.3 to 3.2 (pK1')): significantly increased rate
- Jss, steady state rate of penetration of levonorgestrel ([1]; pH 4.9): 1.1635 mcg/cm^2 /hr
- rate of penetration of levonorgestrel, ranking in words ([1]; pK2' (pH 8.6-10.8)): fastest rate of penetration

Compound: N[C@@H](CCC(=O)O)C(=O)O [Glutamic Acid, L-Glutamic Acid]
- pHISO (isoelectric pH) [2]: 3.8
- Jss, steady state rate of penetration of levonorgestrel ([1]; Table II, average of all data at all pH values, amino acid 0.03 M): 0.8277 mcg/cm^2 /hr
- Jss, steady state rate of penetration of levonorgestrel ([1]; Table VI, at pK2', pH 9.9): 0.450 mcg/cm^2 hr
- Jss, steady state rate of penetration of levonorgestrel ([1]; pH 3.8): 0.842 mcg/cm^2 /hr
- Jss, steady state rate of penetration of levonorgestrel ([1]; pH 4.6): 1.1910 mcg/cm^2 /hr
- Jss, steady state rate of penetration of levonorgestrel ([1]; pH 9.9): 0.450 mcg/cm^2 /hr
- rate of penetration of levonorgestrel (in words) ([1]; pH between 4.0 and 5.0): relatively high rates of penetration

Compound: NCC(=O)O [Glycine]
- effect of hundred-fold concentration difference on rate of penetration ([1]; Glycine buffer, previous experimentation): no significant difference in the rate of penetration
- Jss, steady state rate of penetration of levonorgestrel ([1]; Table VI, at pK2', pH 9.6): 1.003 mcg/cm^2 hr
- Jss, steady state rate of penetration of levonorgestrel ([1]; pH 2.4): 0.557 mcg/cm^2 /hr
- Jss, steady state rate of penetration of levonorgestrel ([1]; pH 4.7): 1.2790 mcg/cm^2 /hr
- Jss, steady state rate of penetration of levonorgestrel ([1]; pH 6.0): 0.532 mcg/cm^2 /hr
- Jss, steady state rate of penetration of levonorgestrel ([1]; pH 9.6): 1.003 mcg/cm^2 /hr

Compound: CC[C@H](C)[C@H](N)C(=O)O [Isoleucine, L-(+)-Isoleucine]
- Jss, steady state rate of penetration of levonorgestrel [1]: 1.5542 mcg/cm^2 /hr
- effect on penetration at specific pHs, in words [1]: greatest affect on penetration
- overall rate of penetration of levonorgestrel, ranking in words [1]: provided the highest rates
- rate of penetration of levonorgestrel (in words) [1]: relatively high rates of penetration
- Jss, steady state rate of penetration of levonorgestrel ([1]; pH 2.4): 0.921 mcg/cm^2 /hr
- Jss, steady state rate of penetration of levonorgestrel ([1]; pH 4.5): 1.3328 mcg/cm^2 /hr
- Jss, steady state rate of penetration of levonorgestrel ([1]; pH 6): 3.167 mcg/cm^2 /hr

Compound: C#C[C@]1(O)CC[C@H]2[C@@H]3CCC4=CC(=O)CC[C@@H]4[C@H]3CC[C@@]21CC [Levonorgestrel, reference compound]
- effect of pH on rate of penetration ([1]; amino acid present in the formulation): not affected significantly by changing pH
- Average rate of penetration of levonorgestrel in the presence of amino acids ([1]; pH 2.5): 1.0980 mcg/cm^2 /hr
- Average rate of penetration of levonorgestrel in the presence of amino acids ([1]; pH 4.5): 1.1279 mcg/cm^2 /hr
- Average rate of penetration of levonorgestrel in the presence of amino acids ([1]; pH 6.1): 1.2798 mcg/cm^2 /hr
- Average rate of penetration of levonorgestrel in the presence of amino acids ([1]; pH 9.6): 1.0598 mcg/cm^2 /hr

Compound: O=C(O)[C@@H]1CCCN1 [Proline, L-(-)-Proline]
- Jss, steady state rate of penetration of levonorgestrel [1]: 0.8462 mcg/cm^2 /hr
- Jss, steady state rate of penetration of levonorgestrel ([1]; pH 2.3): 0.765 mcg/cm^2 /hr
- Jss, steady state rate of penetration of levonorgestrel ([1]; pH 4.6): 1.0863 mcg/cm^2 /hr
- Jss, steady state rate of penetration of levonorgestrel ([1]; pH 6.7): 0.688 mcg/cm^2 /hr

Compound: N[C@@H](CO)C(=O)O [Serine, L-(-)-Serine]
- Jss, steady state rate of penetration of levonorgestrel [1]: 0.8628 mcg/cm^2 /hr
- Jss, steady state rate of penetration of levonorgestrel ([1]; pH 4.7): 1.1287 mcg/cm^2 /hr
- Jss, steady state rate of penetration of levonorgestrel ([1]; pH 5.7): 0.896 mcg/cm^2 /hr

Compound: N[C@@H](Cc1c[nH]c2ccccc12)C(=O)O [Tryptophan, L-(-)-Tryptophan]
- Jss, steady state rate of penetration of levonorgestrel [1]: 0.6033 mcg/cm^2 /hr
- Jss, steady state rate of penetration of levonorgestrel ([1]; pH 3.2): 0.641 mcg/cm^2 /hr
- Jss, steady state rate of penetration of levonorgestrel ([1]; pH 4.7): 0.6020 mcg/cm^2 /hr
- Jss, steady state rate of penetration of levonorgestrel ([1]; pH 6.5): 0.567 mcg/cm^2 /hr

Compound: CC(C)[C@H](N)C(=O)O [Valine, L-(+)-Valine]
- Jss, steady state rate of penetration of levonorgestrel [1]: 1.8006 mcg/cm^2 /hr
- effect on penetration at specific pHs, in words [1]: greatest affect on penetration
- Jss, steady state rate of penetration of levonorgestrel ([1]; pH 2.4): 1.492 mcg/cm^2 /hr
- Jss, steady state rate of penetration of levonorgestrel ([1]; pH 4.7): 1.7903 mcg/cm^2 /hr
- Jss, steady state rate of penetration of levonorgestrel ([1]; pH 5.9): 2.276 mcg/cm^2 /hr
